Patent US8592448B2 (OSI Pharmaceuticals, LLC, priority 2008, dated 2013)
pIC50: −log10 of the molar value. Where two headings read alike, the source gives them in different places.

How the values were obtained:
MKN45 cells = experiment: MKN45 cell proliferation assay (CellTiter-Glo); assay type: cell-based; details: MKN45 cell line, 3 days incubation, at least duplicate experiments, read-out: Prolif. IC50
Protocol: The effect of inhibitors on the proliferation of MKN45 cells was determined using the following protocol. MKN45 cells were plated in Corning 3917 96-well white tissue culture treated plates in growth medium (RPMI, 10% FCS) at a density of 5000 cells/well in a total volume of 135 μL and incubated at 37° C., 5% CO2, 95% humidity overnight. The following day, one-tenth volume of a 10× concentration of compounds was added to the wells in an 8-point dilution series. The dilution series was composed of an initial 1:5 dilution of a 10 mM stock of compound in DMSO, followed by serial 1:4 dilutions in DMSO, then a 1:20 dilution in growth medium prior to the 1:10 dilution into the cell plate. Final DMSO concentration on the cells was 0.1%, there were control wells treated with both 0.1% DMSO and no DMSO. The typical dilution range is 10 μM to 0.6 nM. Once the compound was added to the cells, plates were incubated for 3 days at 37° C., 5% CO2 at 95% humidity. On the third day, after allowing all cells and reagents to come to room temperature, 25 μL of CellTiter-Glo reagent (Promega # G7573) was added to the wells. Plates were shaken on a platform for 10 minutes prior to reading luminescence for 0.1 seconds. The signal of the control wells was taken as 100% growth and growth inhibition was expressed as percent of control. IC50 values were determined from the percent of control data using a standard four-parameter model.
(§1) The IC50 values of exemplary compounds of the present invention determined in a cell proliferation assay using the MKN45 cell line according to the procedures described herein in at least duplicate experiments are abbreviated as follows and are shown in Table 2: A, IC50≦0.1 μM; B, 0.1 μM<IC50≦1 μM; C, 1 μM<IC50≦10 μM; D, IC50>10 μM; ND, not determined. The Example # of Table 2 corresponds to the compound example number as illustrated in the Examples section.

phosphorylated c-MET = molecular target: T1, phosphorylated c-MET (Homo sapiens, UniProt P08581); experiment: c-MET cell mechanistic assay (phosphorylated c-MET in MKN45 cells); assay type: cell-based; details: MKN45 cell line, four hours incubation, phosphorylated c-MET levels, at least duplicate experiments; read-out: Met mech IC50
T1 construct: endogenous in cells; host or cells: MKN45
Protocol: The cellular activity of the compounds of the present invention may be determined by the following procedure. MKN45 cells were plated in Falcon 3072 96-well plates in growth media (RPMI, 10% FBS, 1% L-glutamine) at a density of 5000 cells/well and incubated at 37° C., 5% CO2 overnight. The following day, one-tenth volume of a 10× concentration of compounds was added to the wells in a 6-point dilution series. The dilutions series was composed of an initial 1:5 dilution in DMSO, followed by a 1:10 dilution in growth media, for a final DMSO concentration on cells of 0.5%. Control wells were treated with 0.5% DMSO. The typical range of dilution was 10 μM to 3 nM. Once compound was added to the cells, plates were incubated for four hours at 37° C., 5% CO2. Plates were then washed in PBS, and lysed in triton-based lysis buffer. Lysates were transferred to a precoated capture plate made by Biosource (Cat # KH00281). The phosphorylated c-MET levels were measured by incubating with a rabbit polyclonal antibody against phosphorylated c-MET ([pYpYpY1230/1234/1235]) followed by an anti-rabbit antibody conjugated to HRP. Signal was measured on a Wallac Victor plate reader at 450 nm. The DMSO signal of the control wells was defined as 100% and the percent of inhibition of phosphorylated c-Met was expressed as percent of control. IC50 values were determined from the percent of control data using a standard four-parameter model.
as §1, with “in a c-MET cell mechanistic” for “in a cell proliferation”, “c-MET cell mechanistic assay using” for “a cell proliferation assay using”, “in Table 3: A, IC50≦0.1” for “in Table 2: A, IC50≦0.1”, “of Table 3 corresponds to” for “of Table 2 corresponds to”

T1 sequence (P08581 25-1390): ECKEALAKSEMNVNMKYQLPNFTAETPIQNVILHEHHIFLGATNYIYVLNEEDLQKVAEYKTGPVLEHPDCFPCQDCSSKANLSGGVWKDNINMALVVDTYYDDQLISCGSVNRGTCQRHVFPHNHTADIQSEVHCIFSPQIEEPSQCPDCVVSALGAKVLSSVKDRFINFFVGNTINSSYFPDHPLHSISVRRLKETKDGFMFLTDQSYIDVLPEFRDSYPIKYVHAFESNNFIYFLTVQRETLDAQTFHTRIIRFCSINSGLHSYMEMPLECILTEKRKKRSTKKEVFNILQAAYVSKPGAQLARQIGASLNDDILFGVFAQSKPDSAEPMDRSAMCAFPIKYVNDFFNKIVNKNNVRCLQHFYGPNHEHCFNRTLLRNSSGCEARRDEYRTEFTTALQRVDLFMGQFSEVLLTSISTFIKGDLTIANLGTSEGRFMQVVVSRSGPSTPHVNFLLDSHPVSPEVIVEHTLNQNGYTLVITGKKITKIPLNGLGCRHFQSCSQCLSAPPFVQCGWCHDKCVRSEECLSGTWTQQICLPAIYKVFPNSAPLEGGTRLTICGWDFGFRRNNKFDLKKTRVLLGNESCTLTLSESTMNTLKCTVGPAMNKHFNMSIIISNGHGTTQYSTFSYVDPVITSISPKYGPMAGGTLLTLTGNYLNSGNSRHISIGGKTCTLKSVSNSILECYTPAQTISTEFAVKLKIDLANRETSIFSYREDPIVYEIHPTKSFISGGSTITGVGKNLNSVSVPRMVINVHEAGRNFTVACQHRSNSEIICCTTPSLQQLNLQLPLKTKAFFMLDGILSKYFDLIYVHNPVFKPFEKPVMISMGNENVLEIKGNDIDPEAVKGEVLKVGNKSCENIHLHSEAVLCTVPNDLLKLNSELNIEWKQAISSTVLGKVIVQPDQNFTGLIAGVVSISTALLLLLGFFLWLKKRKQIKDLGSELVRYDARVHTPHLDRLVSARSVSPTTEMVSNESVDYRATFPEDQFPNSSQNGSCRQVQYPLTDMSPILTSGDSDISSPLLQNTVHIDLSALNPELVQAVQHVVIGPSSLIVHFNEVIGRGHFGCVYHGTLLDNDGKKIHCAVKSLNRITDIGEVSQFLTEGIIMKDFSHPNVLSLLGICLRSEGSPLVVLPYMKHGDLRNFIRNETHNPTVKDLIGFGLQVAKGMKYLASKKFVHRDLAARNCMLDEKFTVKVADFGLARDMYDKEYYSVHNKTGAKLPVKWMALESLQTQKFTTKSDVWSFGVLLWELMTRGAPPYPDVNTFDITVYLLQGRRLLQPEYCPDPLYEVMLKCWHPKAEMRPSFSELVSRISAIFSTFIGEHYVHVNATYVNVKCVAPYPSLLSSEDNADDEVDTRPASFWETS

| pIC50 (phosphorylated c-MET) | pIC50 (MKN45 cells; Homo sapiens, MKN-45, 72 h) | Compound | further results |
| --- | --- | --- | --- |
| ≥ 7.00 | – | 2-(4-{3-[(S)-1-(2,6-Dichloro-3-fluorophenyl)ethyl]-1H-pyrrolo[2,3-b]-pyridin-5-yl}-pyrazol-1-yl)-acetamide [Example 75] | pIC50 (MKN45 cells): 6.00 to 7.00 |
| – | 5.00 to 6.00 | CC(c1c(Cl)ccc(F)c1Cl)c1c[nH]c2ncc(-c3ccc(O)cc3)cc12 (centres unmarked) [Example 8, 4-{3-[1-(2,6-Dichloro-3-fluorophenyl)ethyl]-1H-pyrrolo[2,3-b]pyridin-5-yl}phenol] | – |
| – | 5.00 to 6.00 | CC(c1c(Cl)ccc(F)c1Cl)c1c[nH]c2ncc(-c3ccsc3)cc12 (centres unmarked) [Example 9, 3-[1-(2,6-Dichloro-3-fluorophenyl)ethyl]-5-thiophen-3-yl-1H-pyrrolo[2,3-b]pyridine] | – |
| – | 5.00 to 6.00 | CC(=O)Nc1ccc(-c2cnc3[nH]cc(C(C)c4c(Cl)ccc(F)c4Cl)c3c2)cc1 (centres unmarked) [Example 10, N-(4-{3-[1-(2,6-Dichloro-3-fluorophenyl)ethyl]-1H-pyrrolo[2,3-b]pyridin-5-yl}phenyl)acetamide] | – |
| – | 5.00 to 6.00 | CC(c1c(Cl)ccc(F)c1Cl)c1c[nH]c2ncc(-c3ccc(N(C)C)cc3)cc12 (centres unmarked) [Example 11, (4-{3-[1-(2,6-Dichloro-3-fluorophenyl)ethyl]-1H-pyrrolo[2,3-b]pyridin-5-yl}phenyl)dimethylamine] | – |
| – | 5.00 to 6.00 | CC(c1c(Cl)ccc(F)c1Cl)c1c[nH]c2ncc(-c3cncnc3)cc12 (centres unmarked) [Example 12, 3-[1-(2,6-Dichloro-3-fluorophenyl)ethyl]-5-pyrimidin-5-yl-1H-pyrrolo[2,3-b]pyridine] | – |
| – | 5.00 to 6.00 | CC(c1c(Cl)ccc(F)c1Cl)c1c[nH]c2ncc(-c3ccc(C(N)=O)cc3)cc12 (centres unmarked) [Example 14, 4-{3-[1-(2,6-Dichloro-3-fluorophenyl)ethyl]-1H-pyrrolo[2,3-b]pyridin-5-yl}benzamide] | – |
| – | 6.00 to 7.00 | CC(c1c(Cl)ccc(F)c1Cl)c1c[nH]c2ncc(-c3ccc(N4CCN(C)CC4)cc3)cc12 (centres unmarked) [Example 16, 3-[1-(2,6-Dichloro-3-fluorophenyl)ethyl]-5-[4-(4-methylpiperazin-1-yl)phenyl]-1H-pyrrolo[2,3-b]pyridine] | – |
| – | 5.00 to 6.00 | CC(c1c(Cl)ccc(F)c1Cl)c1c[nH]c2ncc(-c3ccc(NS(C)(=O)=O)cc3)cc12 (centres unmarked) [Example 17, N-(4-{3-[1-(2,6-Dichloro-3-fluorophenyl)ethyl]-1H-pyrrolo[2,3-b]pyridin-5-yl}phenyl)methanesulfonamide] | – |
| – | 5.00 to 6.00 | CC(c1c(Cl)ccc(F)c1Cl)c1c[nH]c2ncc(-c3ccc(C(=O)NC4CCCCC4)cc3)cc12 (centres unmarked) [Example 21, N-Cyclohexyl-4-{3-[1-(2,6-dichloro-3-fluorophenyl)ethyl]-1H-pyrrolo[2,3-b]pyridin-5-yl}benzamide] | – |
| – | 6.00 to 7.00 | CC(c1c(Cl)ccc(F)c1Cl)c1c[nH]c2ncc(-c3ccc(N4CCOCC4)cc3)cc12 (centres unmarked) [Example 25, 3-[1-(2,6-Dichloro-3-fluorophenyl)ethyl]-5-(4-morpholin-4-ylphenyl)-1H-pyrrolo[2,3-b]pyridine] | – |
| 6.00 to 7.00 | – | CNC(=O)N1CC=C(c2cnc3[nH]cc(C(C)c4c(Cl)ccc(F)c4Cl)c3c2)CC1 (centres unmarked) [Example 34, 4-{3-[1-(2,6-Dichloro-3-fluorophenyl)ethyl]-1H-pyrrolo[2,3-b]pyridin-5-yl}-3,6-dihydro-2H-pyridine-1-carboxylic acid methylamide] | – |
| 6.00 to 7.00 | – | COC(=O)N1CC=C(c2cnc3[nH]cc(C(C)c4c(Cl)ccc(F)c4Cl)c3c2)CC1 (centres unmarked) [Example 35, 4-{3-[1-(2,6-Dichloro-3-fluorophenyl)-ethyl]-1H-pyrrolo[2,3-b]pyridin-5-yl}-3,6-dihydro-2H-pyridine-1-carboxylic acid methyl ester] | – |
| 6.00 to 7.00 | – | CC(c1c(Cl)ccc(F)c1Cl)c1c[nH]c2ncc(C3=CCN(C(=O)C(O)C(F)(F)F)CC3)cc12 (centres unmarked) [Example 44] | – |
| 6.00 to 7.00 | – | CC(c1c(Cl)ccc(F)c1Cl)c1c[nH]c2ncc(-c3cnn(C4CCN(S(N)(=O)=O)CC4)c3)cc12 (centres unmarked) [Example 52, 4-(4-{3-[1-(2,6-Dichloro-3-fluorophenyl)ethyl]-1H-pyrrolo[2,3-b]pyridin-5-yl}-pyrazol-1-yl)-piperidine-1-sulfonic acid amide] | – |
| 6.00 to 7.00 | – | CC(c1c(Cl)ccc(F)c1Cl)c1c[nH]c2ncc(-c3cn(C)cn3)cc12 (centres unmarked) [Example 54, 3-[1-(2,6-Dichloro-3-fluorophenyl)ethyl]-5-(1-methyl-1H-imidazol-4-yl)-1H-pyrrolo[2,3-b]pyridine] | – |
| 6.00 to 7.00 | – | C[C@H](c1c(Cl)ccc(F)c1Cl)c1c[nH]c2ncc(C3=CCCNC3)cc12 [Example 66, 3-[(S)-1-(2,6-Dichloro-3-fluorophenyl)ethyl]-5-(1,2,5,6-tetrahydropyridin-3-yl)-1H-pyrrolo[2,3-b]pyridine] | – |
| 6.00 to 7.00 | – | C[C@H](c1c(Cl)ccc(F)c1Cl)c1c[nH]c2ncc(-c3ccncc3)cc12 [Example 68, 3-[(S)-1-(2,6-Dichloro-3-fluorophenyl)ethyl]-5-pyridin-4-yl-1H-pyrrolo[2,3-b]pyridine] | – |
| 6.00 to 7.00 | – | C[C@H](c1c(Cl)ccc(F)c1Cl)c1c[nH]c2ncc(-c3cnn(CC(=O)O)c3)cc12 [Example 74, (4-{3-[(S)-1-(2,6-Dichloro-3-fluorophenyl)ethyl]-1H-pyrrolo[2,3-b]pyridin-5-yl}-pyrazol-1-yl)-acetic acid] | – |
| 6.00 to 7.00 | – | C[C@@H](c1c(Cl)ccc(F)c1Cl)c1c[nH]c2ncc(-c3cnn(C4CCN(C=O)CC4)c3)cc12 [Example 82, 4-(4-{3-[(R)-1-(2,6-Dichloro-3-fluorophenyl)ethyl]-1H-pyrrolo[2,3-b]-pyridin-5-yl}-pyrazol-1-yl)-piperidine-1-carbaldehyde] | – |
| 5.00 to 6.00 | – | C[C@@H](c1c(Cl)ccc(F)c1Cl)c1c[nH]c2ncc(-c3cnn(C4CCN(S(C)(=O)=O)CC4)c3)cc12 [Example 83, 3-[(R)-1-(2,6-Dichloro-3-fluorophenyl)ethyl]-5-[1-(1-methane-sulfonylpiperidin-4-yl)-1H-pyrazol-4-yl]-1H-pyrrolo[2,3-b]pyridine] | – |
| 5.00 to 6.00 | – | C[C@@H](c1c(Cl)ccc(F)c1Cl)c1c[nH]c2ncc(-c3cnn(C4CCN(C(N)=O)CC4)c3)cc12 [Example 84, 4-(4-{3-[(R)-1-(2,6-Dichloro-3-fluorophenyl)ethyl]-1H-pyrrolo[2,3-b]-pyridin-5-yl}-pyrazol-1-yl)-piperidine-1-carboxamide] | – |
| ≥ 7.00 | – | C[C@H](c1c(Cl)ccc(F)c1Cl)c1c[nH]c2ncc(-c3cnn([C@H]4CC[C@H](O)CC4)c3)cc12 [Example 86, trans-4-(4-{3-[(1S)-1-(2,6-dichloro-3-fluorophenyl)ethyl]-1H-pyrrolo[2,3-b]pyridin-5-yl}-1H-pyrazol-1-yl)cyclohexanol] | – |
| ≥ 7.00 | – | C[C@H](c1c(Cl)ccc(F)c1Cl)c1c[nH]c2ncc(-c3cnn([C@H]4CC[C@@H](O)CC4)c3)cc12 [Example 87, cis-4-(4-{3-[(1S)-1-(2,6-dichloro-3-fluorophenyl)ethyl]-1H-pyrrolo[2,3-b]pyridin-5-yl}-1H-pyrazol-1-yl)cyclohexanol] | – |

| Compound | pIC50 (phosphorylated c-MET) | pIC50 (MKN45 cells; Homo sapiens, MKN-45, 72 h) | further results |
| --- | --- | --- | --- |
| 3-[1-(2,6-Dichloro-3-fluorophenyl)ethyl]-5-[1-(1-methanesulfonylpiperidin-4-yl)-1H-pyrazol-4-yl]-1H-pyrrolo[2,3-b]pyridine [Example 37] | 6.00 to 7.00 | – | – |
